Where “and” joins values, the source holds several entries; their conditions need not be identical. Equal values may be shown once.
Columns and labels:
[1] = test system: OVCAR-8 ovarian carcinoma cells; assay: Antiproliferative activity against OVCAR-8 (MTT); format: cell-based; conditions: Homo sapiens, 72 h
Description: (§1) The in vitro antiproliferative activity of compounds 38, 42, and 45 against a panel of five human ovarian carcinoma cell lines (SKOV3, IGROV-1, A2780, OVCAR-8, and OVCAR-3) was evaluated by a colorimetric method (Table 3) and compared with paclitaxel. […] For SKOV3, the potency reduction observed for paclitaxel together with a sustained or improved (42 with a 7 nM IC50 value) potency for MDS results in a more favorable profile of the MDS compared to paclitaxel.
(§2) MCF7 (human breast carcinoma), SKOV-3 (human ovarian carcinoma), OVCAR-3 (human ovarian carcinoma), OVCAR-8 (human ovarian carcinoma), and HeLa (human cervical carcinoma) cell lines were cultured in Dulbecco’s Modified Eagle’s Medium (DMEM) (Gibco, Thermo Fischer Scientific) containing 10% (v/v) heat-inactivated fetal bovine serum (HIFBS) (Lonza-Cambrex, Karlskoga, Sweden), 2 mM L-glutamine (Lonza-Cambrex, Karlskoga, Sweden), 100 μg/mL streptomycin, and 100 IU/mL penicillin (Lonza-Cambrex) at 37 °C in humidified 95% air and 5% CO2. […]
(§3) MCF7, HeLa, and HT-29 cell proliferation, when treated with the corresponding compounds, were determined using the XTT (sodium 3’-[1(phenylaminocarbonyl)-3,4-tetrazolium]-bis(4-methoxy-6-nitro)-benzenesulfonic acid hydrate) cell proliferation kit (Roche Molecular Biochemicals, Mannheim, Germany). […] The absorbance of the formazan product generated was measured at 450 nm using a multi-well plate reader. SKOV-3, OVCAR-3, OVCAR-8, IGROV-1, A-2780 cell proliferation, when treated with the corresponding compound, were determined using MTT (3-(4,5-dimethylthiazol-2-yl)-2,5-diphenyl-2H-tetrazolium bromide) (Sigma-Aldrich, St. Louis, MO, USA). […] Absorbance was measured at 570 nm in a plate reader (Ultra Evolution, Tecan, Männedorf, Suiza). […] After 24 h incubation, to allow cells to attach to the plates, all compounds were added at 1 µM concentration and the effect on the proliferation was evaluated 72 h post-treatment. […]

[2] = test system: A2780 ovarian carcinoma cells; assay: Antiproliferative activity against A2780 (MTT); format: cell-based; conditions: Homo sapiens, 72 h
Description: as §1, §2, §3

[3] = test system: IGROV-1 ovarian carcinoma cells; assay: Antiproliferative activity against IGROV-1 (MTT); format: cell-based; conditions: Homo sapiens, 72 h
Description: as §1
MCF7 (human breast carcinoma), SKOV-3 (human ovarian carcinoma), OVCAR-3 (human ovarian carcinoma), OVCAR-8 (human ovarian carcinoma), and HeLa (human cervical carcinoma) cell lines were cultured in Dulbecco’s Modified Eagle’s Medium (DMEM) (Gibco, Thermo Fischer Scientific) containing 10% (v/v) heat-inactivated fetal bovine serum (HIFBS) (Lonza-Cambrex, Karlskoga, Sweden), 2 mM L-glutamine (Lonza-Cambrex, Karlskoga, Sweden), 100 μg/mL streptomycin, and 100 IU/mL penicillin (Lonza-Cambrex) at 37 °C in humidified 95% air and 5% CO2. HT-29 (human colon carcinoma), IGROV-1 (human ovarian carcinoma), and A2780 (human ovarian carcinoma) cell lines were cultured in RPMI 1640 medium (Gibco, Thermo Fischer Scientific) supplemented with 10% HIFBS, 100 μg/mL streptomycin, and 100 IU/mL penicillin at 37 °C in humidified 95% air and 5% CO2 atmosphere. The presence of mycoplasma was routinely checked with MycoAlert kit (Lonza-Cambrex) and only mycoplasma-free cells were used in the experiments. Ovarian tumor cell lines were originally acquired from Dr Atanasio Pandiella from Centro de Investigación del Cáncer (CIC), Salamanca, Spain. HeLa, HT-29 and MCF7 tumor cell lines were provided by Dr Faustino Mollinedo from Centro de Investigaciones Biológicas Margarita Salas, Madrid, Spain.
as §3

SKOV3 cells = assay: Annexin V-FITC/PI cell death quantification in SKOV3; format: cell-based, human; conditions: SKOV3, 72 h; 38 600 nM, 42 50 nM, 45 400 nM, paclitaxel 10 nM
Description: To determine whether the cytotoxic/antiproliferative effect of the MDS was due to apoptosis induction, cells were treated with variable concentrations of the drug for 72 h or 6 days, stained with Annexin V-FITC (AnV) and propidium iodide (PI), and analyzed by flow cytometry. Double negative cells (AnV^−/PI^−) were classified as live cells (L), cells positive for AnV and negative for PI (AnV^+/PI^−) were considered in Early Apoptosis (EA), cells negative for AnV and positive for PI (AnV^−/PI^+) were considered necrotic (N), and double-positive cells (AnV^+/PI^+) as Late Apoptosis (LA). In all cases, the compounds were used at the same concentrations previously used in cell cycle studies (Table 5).
MCF7, SKOV-3, and HeLa apoptotic cells were quantified using an Annexin V-FITC/PI apoptosis detection kit (Immunostep, Salamanca, Spain) according to the manufacturer’s guidelines. 1.5 mL/well of cells in the exponential growth phase at 2·10^4 cells/mL were seeded onto 12-well plates and left to attach overnight. After 24 h incubation, cells were treated with selected compounds. After 72 h (MCF7, SKOV-3, and HeLa) and 6 days (MCF7) post-treatment, attached and floating cells of treated and untreated wells were collected, centrifuged, resuspended in Annexin V binding buffer, and stained with Annexin V-FITC/PI. Cells were then incubated in darkness at room temperature for 15 min and a total of 30,000 cells were acquired and analyzed using the BD Accuri™ C6 Plus Flow Cytometer and Software (version 1.0.264.21, BD Biosciences, San José, CA, USA), respectively. Compounds were dissolved in DMSO and the final solvent concentration never exceeded 0.5% (v/v). Control wells included cells with 0.5% (v/v) DMSO.

Compound `CNc1ccc(S(=O)(=O)N(C)c2cc(OC)c(OC)c(OC)c2)cc1` [Compound 38] has an IC50 [1] of 74 nM, an IC50 [2] of 68 nM and an IC50 [3] of 248 nM. The “Annexin V-FITC/PI 72 h EA (early apoptosis)” value (shortened to “Annexin V-FITC/PI 72 h EA”) (SKOV3 cells) was 31% and 30.5%, the “Annexin V-FITC/PI 72 h LA (late apoptosis)” value (shortened to “Annexin V-FITC/PI 72 h LA”) (SKOV3 cells) was 5.4% and the “Annexin V-FITC/PI 72 h Live” value (SKOV3 cells) was 62.3%. For the same compound, the “Annexin V-FITC/PI 72 h Necrosis” value (SKOV3 cells) was 1.8%.

With `COc1ccc(S(=O)(=O)N(C)c2cc(OC)c(OC)c(OC)c2)cc1N` [Compound 42] the IC50 [1] was 37 nM, the IC50 [2] was 42 nM and the IC50 [3] was 400 nM. For the same compound, the “Annexin V-FITC/PI 72 h EA” value (SKOV3 cells) was 12.2%, the “Annexin V-FITC/PI 72 h LA” value (SKOV3 cells) was 2.0% and the “Annexin V-FITC/PI 72 h Live” value (SKOV3 cells) was 85.1%. For the same compound, the “Annexin V-FITC/PI 72 h Necrosis” value (SKOV3 cells) was 0.7%.

For `COc1ccc(S(=O)(=O)N(Cc2ccccc2)c2cc(OC)c(OC)c(OC)c2)cc1N` [Compound 45], the IC50 [1] was 48 nM, the IC50 [2] was 104 nM and the IC50 [3] was 492 nM. The “Annexin V-FITC/PI 72 h EA” value (SKOV3 cells) was 23% and 23.4%, the “Annexin V-FITC/PI 72 h LA” value (SKOV3 cells) was 2.6% and the “Annexin V-FITC/PI 72 h Live” value (SKOV3 cells) was 72.7%. The “Annexin V-FITC/PI 72 h Necrosis” value (SKOV3 cells) was 1.3%.

Source: paper PMC7918738, “Microtubule Destabilizing Sulfonamides as an Alternative to Taxane-Based Chemotherapy” (International Journal of Molecular Sciences, 2021)
